Test results reported in patent US20100298141A1, “SUBSTITUTED PYRIDINE N-OXIDE HERBICIDES” (E. I. DU PONT DE NEMOURS AND COMPANY, priority 2007, published 2010).

Experiments:
[1] = tested on: corn; test: Test G preemergence test; assay type: in vivo, Zea mays; details: scale 0 to 100
[2] = tested on: duck salad; test: Test B flooded paddy test; assay type: in vivo, Heteranthera limosa; details: Flood, 250 g ai/ha, 13 to 15 days; scale 0 to 100, 0 no effect, 100 complete control
How it was run: (§1)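 Visual injury ratings against untreated controls, taken 13 to 15 days after compound was added to paddy water standing 3 cm above the soil.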

[3] = tested on: soybean; test: Test G preemergence test; assay type: in vivo, Glycine max; details: scale 0 to 100
[4] = tested on: umbrella sedge; test: Test B flooded paddy test; assay type: in vivo, Cyperus difformis; details: Flood, 250 g ai/ha, 13 to 15 days; scale 0 to 100, 0 no effect, 100 complete control
How it was run: as §1

[5] = tested on: rice; test: Test B flooded paddy test; assay type: in vivo, Oryza sativa; details: Flood, 250 g ai/ha, 13 to 15 days; scale 0 to 100, 0 no effect, 100 complete control
How it was run: as §1

[6] = tested on: Italian ryegrass; test: Test D preemergence test; assay type: in vivo, Lolium multiflorum; details: scale 0 to 100
How it was run: (§2)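 Seeds were sown and sprayed preemergence with test chemicals formulated in a non-phytotoxic solvent mixture containing a surfactant. A dash marks no test result.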

[7] = tested on: millet foxtail; test: Test G preemergence test; assay type: in vivo, Setaria italica; details: scale 0 to 100
[8] = tested on: yellow foxtail; test: Test G preemergence test; assay type: in vivo, Pennisetum glaucum; details: scale 0 to 100
[9] = tested on: woolly cupgrass; test: Test G preemergence test; assay type: in vivo, Eriochloa villosa; details: scale 0 to 100
[10] = tested on: yellow nutsedge; test: Test G preemergence test; assay type: in vivo, Cyperus esculentus; details: scale 0 to 100
[11] = tested on: littleseed canarygrass; test: Test D preemergence test; assay type: in vivo, Phalaris minor; details: scale 0 to 100
How it was run: as §2

[12] = tested on: wild oat; test: Test D preemergence test; assay type: in vivo, Avena fatua; details: scale 0 to 100
How it was run: as §2

[13] = tested on: downy bromegrass; test: Test D preemergence test; assay type: in vivo, Bromus tectorum; details: scale 0 to 100
How it was run: as §2

[14] = tested on: goosegrass; test: Test G preemergence test; assay type: in vivo, Eleusine indica; details: scale 0 to 100
[15] = tested on: barnyardgrass; test: Test B flooded paddy test; assay type: in vivo, Echinochloa crus-galli; details: Flood, 250 g ai/ha, 13 to 15 days; scale 0 to 100, 0 no effect, 100 complete control
How it was run: as §1

[16] = tested on: field violet; test: Test D preemergence test; assay type: in vivo, Viola arvensis; details: scale 0 to 100
How it was run: as §2

[17] = tested on: blackgrass; test: Test D preemergence test; assay type: in vivo, Alopecurus myosuroides; details: scale 0 to 100
How it was run: as §2

[18] = tested on: itchgrass; test: Test G preemergence test; assay type: in vivo, Rottboellia cochinchinensis; details: scale 0 to 100
[19] = tested on: winter barley; test: Test D preemergence test; assay type: in vivo, Hordeum vulgare
How it was run: as §2

[20] = tested on: annual bluegrass; test: Test D preemergence test; assay type: in vivo, Poa annua; details: scale 0 to 100
How it was run: as §2

[21] = tested on: barnyardgrass; test: Test G preemergence test; assay type: in vivo, Echinochloa crus-galli; details: scale 0 to 100
[22] = tested on: field sandbur; test: Test G preemergence test; assay type: in vivo, Cenchrus incertus; details: scale 0 to 100
[23] = tested on: sorghum; test: Test G preemergence test; assay type: in vivo, Sorghum vulgare; details: scale 0 to 100
[24] = tested on: winter wheat; test: Test D preemergence test; assay type: in vivo, Triticum aestivum; details: scale 0 to 100
How it was run: as §2

[25] = tested on: spring wheat; test: Test D preemergence test; assay type: in vivo, Triticum aestivum; details: scale 0 to 100
How it was run: as §2

[26] = tested on: tall waterhemp; test: Test G preemergence test; assay type: in vivo, Amaranthus tuberculatos; details: scale 0 to 100

Cn1nc(C(F)(F)F)c(CS(=O)(=O)c2cccc[n+]2[O-])c1OC(F)F [Compound 4]
Plant response rating, Corn ([1]; 31 g ai/ha): 0 | Plant response rating, Corn ([1]; 62 g ai/ha): 0 | Plant response rating, Corn ([1]; 125 g ai/ha): 5 | Plant response rating, Corn ([1]; 250 g ai/ha): 0 | Plant response rating, Ducksalad [2]: 90 | Plant response rating, Soybean ([3]; 31 g ai/ha): 0 | Plant response rating, Soybean ([3]; 62 g ai/ha): 10 | Plant response rating, Soybean ([3]; 125 g ai/ha): 15 | Plant response rating, Soybean ([3]; 250 g ai/ha): 15 | Plant response rating, Umbrella Sedge [4]: 100 | Plant response rating, Rice, Transplanted [5]: 90 | Plant response rating, Ryegrass, Italian ([6]; 31 g ai/ha): 20 | Plant response rating, Ryegrass, Italian ([6]; 62 g ai/ha): 20 | Plant response rating, Ryegrass, Italian ([6]; 125 g ai/ha): 20 | Plant response rating, Ryegrass, Italian ([6]; 250 g ai/ha): 50 | Plant response rating, Foxtail, Millet ([7]; 31 g ai/ha): 30 | Plant response rating, Foxtail, Millet ([7]; 62 g ai/ha): 40 | Plant response rating, Foxtail, Millet ([7]; 125 g ai/ha): 70 | Plant response rating, Foxtail, Millet ([7]; 250 g ai/ha): 100 | Plant response rating, Foxtail, Yellow ([8]; 31 g ai/ha): 100 | Plant response rating, Foxtail, Yellow ([8]; 62 g ai/ha): 100 | Plant response rating, Foxtail, Yellow ([8]; 125 g ai/ha): 100 | Plant response rating, Foxtail, Yellow ([8]; 250 g ai/ha): 100 | Plant response rating, Cupgrass, Woolly ([9]; 31 g ai/ha): 0 | Plant response rating, Cupgrass, Woolly ([9]; 62 g ai/ha): 75 | Plant response rating, Cupgrass, Woolly ([9]; 125 g ai/ha): 75 | Plant response rating, Cupgrass, Woolly ([9]; 250 g ai/ha): 100 | Plant response rating, Nutsedge, Yellow ([10]; 31 g ai/ha): 0 | Plant response rating, Nutsedge, Yellow ([10]; 62 g ai/ha): 0 | Plant response rating, Nutsedge, Yellow ([10]; 125 g ai/ha): 15 | Plant response rating, Nutsedge, Yellow ([10]; 250 g ai/ha): 40 | Plant response rating, Canarygrass ([11]; 31 g ai/ha): 30 | Plant response rating, Canarygrass ([11]; 62 g ai/ha): 100 | Plant response rating, Canarygrass ([11]; 125 g ai/ha): 100 | Plant response rating, Canarygrass ([11]; 250 g ai/ha): 100 | Plant response rating, Oat, Wild ([12]; 31 g ai/ha): 25 | Plant response rating, Oat, Wild ([12]; 62 g ai/ha): 30 | Plant response rating, Oat, Wild ([12]; 125 g ai/ha): 30 | Plant response rating, Oat, Wild ([12]; 250 g ai/ha): 35 | Plant response rating, Bromegrass, Downy ([13]; 31 g ai/ha): 30 | Plant response rating, Bromegrass, Downy ([13]; 62 g ai/ha): 30 | Plant response rating, Bromegrass, Downy ([13]; 125 g ai/ha): 30 | Plant response rating, Bromegrass, Downy ([13]; 250 g ai/ha): 30 | Plant response rating, Goosegrass ([14]; 31 g ai/ha): 80 | Plant response rating, Goosegrass ([14]; 62 g ai/ha): 95 | Plant response rating, Goosegrass ([14]; 125 g ai/ha): 100 | Plant response rating, Goosegrass ([14]; 250 g ai/ha): 100 | Plant response rating, Barnyardgrass [15]: 80 | Plant response rating, Field Violet ([16]; 31 g ai/ha): 0 | Plant response rating, Field Violet ([16]; 62 g ai/ha): 0 | Plant response rating, Field Violet ([16]; 125 g ai/ha): 0 | Plant response rating, Field Violet ([16]; 250 g ai/ha): 10 | Plant response rating, Blackgrass ([17]; 31 g ai/ha): 0 | Plant response rating, Blackgrass ([17]; 62 g ai/ha): 30 | Plant response rating, Blackgrass ([17]; 125 g ai/ha): 50 | Plant response rating, Blackgrass ([17]; 250 g ai/ha): 100 | Plant response rating, Itchgrass ([18]; 31 g ai/ha): 0 | Plant response rating, Itchgrass ([18]; 62 g ai/ha): 20 | Plant response rating, Itchgrass ([18]; 125 g ai/ha): 30 | Plant response rating, Itchgrass ([18]; 250 g ai/ha): 60 | Plant response rating, Barley ([19]; Preemergence, 62 g ai/ha, scale 0 to 100): 30 | Plant response rating, Barley ([19]; Preemergence, 125 g ai/ha, scale 0 to 100): 30 | Plant response rating, Barley ([19]; Preemergence, 31 g ai/ha, scale 0 to 100): 30 | Plant response rating, Barley ([19]; preemergence, 250 g ai/ha, scale 0 (no effect) to 100 (complete control)): 35 | Plant response rating, Bluegrass ([20]; 31 g ai/ha): 50 | Plant response rating, Bluegrass ([20]; 62 g ai/ha): 50 | Plant response rating, Bluegrass ([20]; 125 g ai/ha): 80 | Plant response rating, Bluegrass ([20]; 250 g ai/ha): 100 | Plant response rating, Barnyardgrass ([21]; 31 g ai/ha): 70 | Plant response rating, Barnyardgrass ([21]; 62 g ai/ha): 100 | Plant response rating, Barnyardgrass ([21]; 125 g ai/ha): 100 | Plant response rating, Barnyardgrass ([21]; 250 g ai/ha): 100 | Plant response rating, Sandbur ([22]; 31 g ai/ha): 0 | Plant response rating, Sandbur ([22]; 62 g ai/ha): 30 | Plant response rating, Sandbur ([22]; 125 g ai/ha): 60 | Plant response rating, Sandbur ([22]; 250 g ai/ha): 100 | Plant response rating, Sorghum ([23]; 31 g ai/ha): 10 | Plant response rating, Sorghum ([23]; 62 g ai/ha): 25 | Plant response rating, Sorghum ([23]; 125 g ai/ha): 35 | Plant response rating, Sorghum ([23]; 250 g ai/ha): 40 | Plant response rating, Wheat, Winter ([24]; 31 g ai/ha): 30 | Plant response rating, Wheat, Winter ([24]; 62 g ai/ha): 20 | Plant response rating, Wheat, Winter ([24]; 125 g ai/ha): 25 | Plant response rating, Wheat, Winter ([24]; 250 g ai/ha): 45 | Plant response rating, Wheat, Spring ([25]; 31 g ai/ha): 20 | Plant response rating, Wheat, Spring ([25]; 62 g ai/ha): 30 | Plant response rating, Wheat, Spring ([25]; 125 g ai/ha): 30 | Plant response rating, Wheat, Spring ([25]; 250 g ai/ha): 30 | Plant response rating, Waterhemp ([26]; 31 g ai/ha): 80 | Plant response rating, Waterhemp ([26]; 62 g ai/ha): 100 | Plant response rating, Waterhemp ([26]; 125 g ai/ha): 100 | Plant response rating, Waterhemp ([26]; 250 g ai/ha): 100
